What follows are compounds tested on HSF1 pathway (HSP72 expression) in SK-OV-3 cells (assay: Cell-based ELISA (Cellisa) assay: HSP72 induction by 17-AAG in SK-OV-3 cells). Conditions: Homo sapiens, compound 1 h before 17-AAG (250 nM), then 18 h, HSP72 antibody, europium counts normalised to protein, 50% inhibitory concentration, read-out: SKOV3 Cellisa.
Experimental: U2OS cells (5-8×10^4 cells/mL) or SK-OV-3 cells (5-8×10^4 cells/mL) were seeded into 96-well plates and incubated at 37° C. for 48 h. […] Cells were then incubated for 18 h. The medium was removed washed 2× with PBS and cells were then fixed with fixing solution (4% paraformaldehyde, 0.3% TritonX-100 in PBS) for 30 min at 4° C. The plates were then washed 2× with PBS before blocking with 5% milk for 30 min at 37° C. After washing the plates 4× with 0.1% Tween-20/deionised water, HSP72 antibody (SPA-810, Enzo Life) was added for 1.5 h at 37° C. Following 4× washes, the plates were incubated with europium-labelled anti-mouse antibody (0.6 ug/ml) in Delfia assay buffer (Perkin Elmer) for 1 h at 37° C. After washing the plates, Delfia enhancement solution was added, shaken for 10 min before reading in the Envision plate reader (Perkin-Elmer) with excitation at 340 nm and emission at 615 nm. The plates were washed again before protein determination using the bicinchoninic acid assay (BCA assay, Pierce Biotechnology). The europium counts were normalised for the amount of protein in each well. The 50% inhibitory concentration value of the compound was then calculated.

Compound	IC50
Cc1ccc2cc(C(=O)Nc3cc(NC(=O)c4ccc5c(c4)OC(C)C5)ccc3C)ccc2n1 (racemic) [Example 2, (rac)-2-Methyl-N-(2-methyl-5-(2-methyl-2,3-dihydrobenzofuran-6-carboxamido)phenyl)quinoline-6-carboxamide]	3400 nM
Cc1ccc2cc(C(=O)Nc3cc(NC(=O)c4ccc5c(c4)OC(C)CO5)ccc3C)ccc2n1 (racemic) [Example 3, (rac)-2-Methyl-N-(2-methyl-5-(3-methyl-2,3-dihydrobenzo[b][1,4]dioxine-6-carboxamido)phenyl)quinoline-6-carboxamide]	4100 nM
Cc1ccc2cc(C(=O)Nc3cc(NC(=O)c4ccc5c(c4)CC(C)O5)ccc3C)ccc2n1 (racemic) [Example 5, (rac)-2-Methyl-N-(2-methyl-5-(2-methyl-2,3-dihydrobenzofuran-5-carboxamido)phenyl)quinoline-6-carboxamide]	2900 nM
Cc1ccc2cc(C(=O)Nc3cc(NC(=O)c4ccc5c(c4)OC(C)CO5)ccc3F)ccc2n1 (centres unmarked) [Example 4, N-(2-Fluoro-5-(3-methyl-2,3-dihydrobenzo[b][1,4]dioxine-6-carboxamido)phenyl)-2-methylquinoline-6-carboxamide]	8800 nM
Cc1ccc2cc(C(=O)Nc3cc(NC(=O)c4ccc5c(c4)OCCC5)ccc3F)ccc2n1 [Example 6, N-(5-(Chroman-7-carboxamido)-2-fluorophenyl)-2-methylquinoline-6-carboxamide]	2700 nM
Cc1ccc2cc(C(=O)Nc3cc(NC(=O)c4ccc5c(c4)OCCC5)ccc3Cl)ccc2n1 [Example 7, N-(2-Chloro-5-(chroman-7-carboxamido)phenyl)-2-methylquinoline-6-carboxamide]	1500 nM
Cc1ccc2cc(C(=O)Nc3cc(NC(=O)c4ccc5c(c4)OCO5)ccc3C)ccc2n1 [Example 8, N-(5-(Benzo[d][1,3]dioxole-5-carboxamido)-2-methylphenyl)-2-methylquinoline-6-carboxamide]	130 nM
Cc1ccc2cc(C(=O)Nc3cc(NC(=O)c4ccc5c(c4)OCC5)ccc3C)ccc2n1 [Example 9, N-(5-(2,3-Dihydrobenzofuran-6-carboxamido)-2-methylphenyl)-2-methylquinoline-6-carboxamide]	170 nM
Cc1ccc2cc(C(=O)Nc3cc(NC(=O)c4ccc5c(c4)CCO5)ccc3C)ccc2n1 [Example 10, N-(5-(2,3-dihydrobenzofuran-5-carboxamido)-2-methylphenyl)-2-methylquinoline-6-carboxamide]	1800 nM
Cc1ccc2cc(C(=O)Nc3cc(NC(=O)c4ccc5ccoc5c4)ccc3C)ccc2n1 [Example 11, N-(5-(benzofuran-6-carboxamido)-2-methylphenyl)-2-methylquinoline-6-carboxamide]	880 nM
Cc1ccc2cc(C(=O)Nc3cc(NC(=O)c4ccc5c(c4)OCCCO5)ccc3C)ccc2n1 [Example 12, N-(5-(3,4-dihydro-2H-benzo[b][1,4]dioxepine-7-carboxamido)-2-methylphenyl)-2-methylquinoline-6-carboxamide]	670 nM
Cc1ccc2cc(C(=O)Nc3cc(NC(=O)c4ccc5c(c4)OCC5)ccc3F)ccc2n1 [Example 13, N-(5-(2,3-Dihydrobenzofuran-6-carboxamido)-2-fluorophenyl)-2-methylquinoline-6-carboxamide]	1800 nM
Cc1ccc2cc(C(=O)Nc3cc(NC(=O)c4ccc5c(c4)OCC5)ccc3Cl)ccc2n1 [Example 14, N-(2-Chloro-5-(2,3-dihydrobenzofuran-6-carboxamido)phenyl)-2-methylquinoline-6-carboxamide]	2100 nM
CCN1CCN(Cc2ccc3cc(C(=O)Nc4cc(NC(=O)c5ccc6c(c5)OCCC6)ccc4F)ccc3n2)CC1 [Example 15, N-(5-(Chroman-7-carboxamido)-2-fluorophenyl)-2-((4-ethylpiperazin-1-yl)methyl)quinoline-6-carboxamide]	1000 nM
CCN1CCN(Cc2ccc3cc(C(=O)Nc4cc(NC(=O)c5ccc6c(c5)OCC6)ccc4C)ccc3n2)CC1 [Example 16, N-(5-(2,3-Dihydrobenzofuran-6-carboxamido)-2-methylphenyl)-2-((4-ethylpiperazin-1-yl)methyl)quinoline-6-carboxamide]	120 nM
CCN1CCN(Cc2ccc3cc(C(=O)Nc4cc(NC(=O)c5ccc6c(c5)OCC6)ccc4F)ccc3n2)CC1 [Example 17, N-(5-(2,3-Dihydrobenzofuran-6-carboxamido)-2-fluorophenyl)-2-((4-ethylpiperazin-1-yl)methyl)quinoline-6-carboxamide]	780 nM
CCN1CCN(Cc2ccc3cc(C(=O)Nc4cc(NC(=O)c5ccc6c(c5)OCC6)ccc4Cl)ccc3n2)CC1 [Example 18, N-(2-Chloro-5-(2,3-dihydrobenzofuran-6-carboxamido)phenyl)-2-((4-ethylpiperazin-1-yl)methyl)quinoline-6-carboxamide]	640 nM
O=C(Nc1ccc(F)c(NC(=O)c2ccc3nc(CN4CCC4)ccc3c2)c1)c1ccc2c(c1)OCC2 [Example 19, 2-(Azetidin-1-ylmethyl)-N-(5-(2,3-dihydrobenzofuran-6-carboxamido)-2-fluorophenyl)quinoline-6-carboxamide]	3100 nM
O=C(Nc1ccc(Cl)c(NC(=O)c2ccc3nc(CN4CCC4)ccc3c2)c1)c1ccc2c(c1)OCCC2 [Example 20, 2-(Azetidin-1-ylmethyl)-N-(2-chloro-5-(chroman-7-carboxamido)phenyl)quinoline-6-carboxamide]	3800 nM
O=C(Nc1ccc(Cl)c(NC(=O)c2ccc3nc(CN4CCC4)ccc3c2)c1)c1ccc2c(c1)OCC2 [Example 21]	1800 nM
